Here are results for 39 compounds from PMC6095626, “Screening of the Pathogen Box for inhibitors with dual efficacy against Giardia lamblia and Cryptosporidium parvum” (PLoS Neglected Tropical Diseases, 2018).

Assay [1] concerns G. lamblia trophozoites (luciferase expressing, WBC6). The assay can be described thus: microbe, parasite or virus in culture. Type of assay: cell-based, Giardia lamblia. The note with it: initial Pathogen Box screen, single concentration 16 µM, inhibition compared to DMSO wells. The method, boiled down:
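Incubation ran 24 h at 37 °C under anaerobic conditions, with compound added in equal volume to trophozoites (WBC6, luciferase-expressing, 250,000 cells/mL). Bioluminescence was the read-out, cross-checked by MOXI Z counts on a duplicate plate; metronidazole served as control (1:2 dilutions from 40 μM).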

In assay [2] the test system is C. parvum (UGA1 Nluc expressing strain in HCT-8 cells). The assay can be described thus: microbe, parasite or virus in culture. Type of assay: cell-based, Cryptosporidium parvum. The note with it: initial Pathogen Box screen, single concentration 10 µM, inhibition compared to DMSO wells. The procedure, abridged:
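Parasite growth quantified by NanoLuc luminescence from lysed infected HCT-8 cells, with EC50 fitted from dose curves. Compounds, single-dose 10 μM or serially diluted, were added to confluent 48 h monolayers before infection with bleached UGA1 Nluc oocysts.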

`CC(C)(C)OC(=O)N1CCN(c2nccc(-c3ccc(-c4ccc(Cl)cc4)s3)n2)CC1` [MMV688416]: in assay [1], the “Giardia (16 uM) Mean % inhibition” value was determined as 55%. Moreover, the “Crypto (10 uM) Mean % inhibition” value in assay [2] is listed as 41%.
Take `CC(C)n1nc(-c2cc3c(Cl)cccc3[nH]2)c2c(N)ncnc21` [MMV688417]: the “Giardia (16 uM) Mean % inhibition” value in assay [1] stood at 77%. Further, the “Crypto (10 uM) Mean % inhibition” value in assay [2] is given as 85%.
The corresponding values for `Cn1ccnc1CNCCS(=O)(=O)c1cccc(Nc2ccc(-c3cccc(F)c3)cn2)c1` [MMV688466] are 28% and 43%.
The corresponding values for `CCCCN(CCCC)c1c(C#N)cc(S(=O)(=O)Nc2ccccc2)cc1C#N` [MMV688467] are 60% and “X* (Mean or standard deviation are negative but not significantly different from the control to be a growth promoter)”.
Take `Nc1ncnc2n[nH]c(Cc3cccc4ccccc34)c12` [MMV688469]: the “Giardia (16 uM) Mean % inhibition” value in assay [1] is given as 9%. The “Crypto (10 uM) Mean % inhibition” value in assay [2] was found to be 57%.
For `CS(=O)(=O)N1CCC(CCn2nc(Cc3cccc4ccccc34)c3c(N)ncnc32)CC1` [MMV688470] the same measures were 23% and 80%.
For `CC(C(=O)Nc1ccc2oc(-c3ccncc3)nc2c1)c1ccccc1` (stereo not drawn) [MMV688471], the “Giardia (16 uM) Mean % inhibition” value in assay [1] worked out at 19%. In assay [2], the “Crypto (10 uM) Mean % inhibition” value was “X* (Mean or standard deviation are negative but not significantly different from the control to be a growth promoter)”.
For `CC(Oc1cccc(Cl)c1)C(=O)Nc1ccc2oc(-c3ccncc3)nc2c1` (stereo not drawn) [MMV688472] the same measures were 55% and “X* (Mean or standard deviation are negative but not significantly different from the control to be a growth promoter)”.
In the case of `COc1cc(C2=NCCN2)ccc1-n1cc(-c2cccc(C3=NCCN3)c2)nn1` [MMV688474], the “Giardia (16 uM) Mean % inhibition” value in assay [1] is reported as 18%. Also, in assay [2], the “Crypto (10 uM) Mean % inhibition” value is given as “X* (Mean or standard deviation are negative but not significantly different from the control to be a growth promoter)”.
As to `CC(=O)NCC1CN(c2ccc(-c3ccc(CO)cc3)c(F)c2)C(=O)O1` (stereo not drawn) [MMV688508], the “Giardia (16 uM) Mean % inhibition” value in assay [1] is given as “X* (Mean or standard deviation are negative but not significantly different from the control to be a growth promoter)”. Besides, the “Crypto (10 uM) Mean % inhibition” value in assay [2] is recorded as “X* (Mean or standard deviation are negative but not significantly different from the control to be a growth promoter)”.
With `O=C(OCc1ccccc1)N1CCC(c2cc(-c3ccncc3)c(-c3ccc(F)cc3)[nH]2)CC1` [MMV688509], the “Giardia (16 uM) Mean % inhibition” value in assay [1] is recorded as 41%. Moreover, in assay [2], the “Crypto (10 uM) Mean % inhibition” value is “X* (Mean or standard deviation are negative but not significantly different from the control to be a growth promoter)”.
As to `N=C(N)c1ccc(-c2cc(-c3ccccc3)on2)cc1` [MMV688514], the “Giardia (16 uM) Mean % inhibition” value in assay [1] is on record as 36%. The “Crypto (10 uM) Mean % inhibition” value in assay [2] was found to be 79%.
For `CC(C)(C)C(=O)N(CCCCCCN1C[C@H](O)[C@@H](O)[C@H](O)[C@H]1CO)C1CCCCCC1` [MMV688543] the same measures were “X* (Mean or standard deviation are negative but not significantly different from the control to be a growth promoter)” and “X* (Mean or standard deviation are negative but not significantly different from the control to be a growth promoter)”.
The corresponding values for `COc1ccc(C2=NCCN2)cc1-c1cn(-c2cccc(C3=NCCN3)c2)nn1` [MMV688547] are 33% and 45%.
As for `CC(C)(C)n1nc(-c2ccccc2)c2c(N)ncnc21` [MMV688548], the “Giardia (16 uM) Mean % inhibition” value in assay [1] was determined as 63%. Also, in assay [2], the “Crypto (10 uM) Mean % inhibition” value came out at 94%.
Take `CCc1ccccc1-n1c(C)cn2c3c(=O)n(C(C(=O)OC)C(C)C)c(=O)n(C)c3nc12` (stereo not drawn) [MMV688550]: the “Giardia (16 uM) Mean % inhibition” value in assay [1] was “X* (Mean or standard deviation are negative but not significantly different from the control to be a growth promoter)”. Also, in assay [2], the “Crypto (10 uM) Mean % inhibition” value turned out to be 58%.
The corresponding values for `Cc1nn(C(=O)Nc2cccc(C(F)(F)F)c2)c(C)c1Sc1ncccn1` [MMV688552] are “X* (Mean or standard deviation are negative but not significantly different from the control to be a growth promoter)” and “X* (Mean or standard deviation are negative but not significantly different from the control to be a growth promoter)”.
For `O=C(NCc1ccoc1)N1CCN(Cc2ccc3c(c2)OCO3)CC1` [MMV688553] the same measures were 50% and 56%.
In the case of `CNc1snc(C)c1C(=O)NCCOc1ccc(OC)cc1` [MMV688554], in assay [1], the “Giardia (16 uM) Mean % inhibition” value is “X* (Mean or standard deviation are negative but not significantly different from the control to be a growth promoter)”. In addition, the “Crypto (10 uM) Mean % inhibition” value in assay [2] is on record as “X* (Mean or standard deviation are negative but not significantly different from the control to be a growth promoter)”.
On to `O=C(NCc1ccco1)N1CCN(Cc2ccc(Cl)s2)CC1` [MMV688555], for which the “Giardia (16 uM) Mean % inhibition” value in assay [1] was determined as 34%. Also, the “Crypto (10 uM) Mean % inhibition” value in assay [2] is recorded as “X* (Mean or standard deviation are negative but not significantly different from the control to be a growth promoter)”.
Consider `NCC(c1cccs1)S(=O)(=O)c1ccccc1` (stereo not drawn) [MMV688557], for which the “Giardia (16 uM) Mean % inhibition” value in assay [1] was -0.156%. Besides, the “Crypto (10 uM) Mean % inhibition” value in assay [2] turned out to be 81%.
For `CN1CCC(c2cc(-c3ccncc3)c(-c3ccc(F)cc3)[nH]2)CC1` [MMV688703] the same measures were 18% and 84%.
For `Cc1cc2nc(NC(=O)C(C)(C)C)nc(Cl)c2n1Cc1ccc(Cl)cc1` [MMV688704] the same measures were 42% and 76%.
Take `CO/N=C(/C(=O)OC)c1ccccc1CO/N=C(/C)c1cccc(C(F)(F)F)c1` [MMV688754]: the “Giardia (16 uM) Mean % inhibition” value in assay [1] was 26%. The “Crypto (10 uM) Mean % inhibition” value in assay [2] is listed as “X* (Mean or standard deviation are negative but not significantly different from the control to be a growth promoter)”.
On to `CC(=O)NC[C@H]1CN(c2ccc(N3CCSCC3)c(F)c2)C(=O)O1` [MMV688756], for which the “Giardia (16 uM) Mean % inhibition” value in assay [1] came to 22%. Besides, the “Crypto (10 uM) Mean % inhibition” value in assay [2] came to 39%.
Consider `CS(=O)(=O)c1ccc(C(=O)N(CC2CCCO2)c2nc3ccccc3s2)cc1[N+](=O)[O-]` (stereo not drawn) [MMV688761], for which the “Giardia (16 uM) Mean % inhibition” value in assay [1] came out at 63%. In assay [2], the “Crypto (10 uM) Mean % inhibition” value is 77%.
Regarding `c1ccc(-c2[nH]c3ccccc3c2C(c2ccccn2)N2CCCC2)cc1` (stereo not drawn) [MMV688762], the “Giardia (16 uM) Mean % inhibition” value in assay [1] is 22%. Besides, the “Crypto (10 uM) Mean % inhibition” value in assay [2] was “X* (Mean or standard deviation are negative but not significantly different from the control to be a growth promoter)”.
The corresponding values for `CNc1nnc(Sc2cnn(-c3ccccc3)c(=O)c2Cl)s1` [MMV688763] are “X* (Mean or standard deviation are negative but not significantly different from the control to be a growth promoter)” and 49%.
Regarding `COc1ccc(-c2onc(C(F)(F)F)c2-c2ccc(Cl)cc2)c(O)c1` [MMV688766], the “Giardia (16 uM) Mean % inhibition” value in assay [1] worked out at 29%. For the same compound, in assay [2], the “Crypto (10 uM) Mean % inhibition” value is given as “X* (Mean or standard deviation are negative but not significantly different from the control to be a growth promoter)”.
For `Cc1[nH]c2ccccc2c1C(c1cccs1)N1CCN(C)CC1` (stereo not drawn) [MMV688768] the same measures were 9% and 66%.
Turning to `Cc1ccccc1C(=O)N1NC(=Nc2ccccc2)SC1(C)C` [MMV688771], the “Giardia (16 uM) Mean % inhibition” value in assay [1] amounted to 51%. Besides, in assay [2], the “Crypto (10 uM) Mean % inhibition” value is recorded as 82%.
As for `O=C(Cn1ccnc1[N+](=O)[O-])NCc1ccccc1` [MMV688773], the “Giardia (16 uM) Mean % inhibition” value in assay [1] is on record as 57%. Besides, in assay [2], the “Crypto (10 uM) Mean % inhibition” value is listed as 55%.
The corresponding values for `CC[C@@H]([C@H](C)O)n1ncn(-c2ccc(N3CCN(c4ccc(OC[C@@H]5CO[C@@](Cn6cncn6)(c6ccc(F)cc6F)C5)cc4)CC3)cc2)c1=O` [MMV688774] are “X* (Mean or standard deviation are negative but not significantly different from the control to be a growth promoter)” and 90%.
For `Cc1cccnc1NC(=O)c1cccc(OCc2c(C)noc2C)c1` [MMV688793] the same measures were 45% and 63%.
For `O=C(NCCc1ccn(-c2ccccc2)n1)C1CCCCC1` [MMV688795] the same measures were 29% and “X* (Mean or standard deviation are negative but not significantly different from the control to be a growth promoter)”.
In the case of `O=C(NCc1nnc2n1CCCCC2)c1ccc(-c2ccc(F)cc2)o1` [MMV688796], in assay [1], the “Giardia (16 uM) Mean % inhibition” value is listed as 52%. The “Crypto (10 uM) Mean % inhibition” value in assay [2] worked out at 44%.
The corresponding values for `CC1CCCCN1C(=O)NCCc1coc(-c2ccc(F)cc2)n1` (stereo not drawn) [MMV688797] are 23% and “X* (Mean or standard deviation are negative but not significantly different from the control to be a growth promoter)”.
For `CS(=O)(=O)c1ccccc1C(=O)N(Cc1ccccc1)c1ccccc1` [MMV688798] the same measures were 9% and 46%.
With `O=C(N[C@H](Cc1ccccc1)C(=O)Nc1ccccc1N1CCOCC1)c1cccs1` [MMV688845], the “Giardia (16 uM) Mean % inhibition” value in assay [1] was 25%. Also, the “Crypto (10 uM) Mean % inhibition” value in assay [2] is reported as 77%.
